Reference: ChEMBL document CHEMBL4715903, “Design, Synthesis, and Biological Evaluation of IRAK4-Targeting PROTACs” (ACS Med Chem Lett, 2021)
Calls of active or inactive are those of the source. The rule behind the calls is not given here.

Columns and labels:
[1] = biological target: T1, Protein cereblon/Interleukin-1 receptor-associated kinase 4 (Homo sapiens) (UniProt Q9NWZ3+Q96SW2); assay: Protac activity at CRBN/IRAK4 in human TMD8 cells harboring MYD88 L265P mutant assessed as induction of IRAK4 degradation by measuring reduction in IRAK4 protein level at 1 uM incubated for 24 hrs by Western blot analysis; type: cell-based
[2] = biological target: T1, Protein cereblon/Interleukin-1 receptor-associated kinase 4 (Homo sapiens); assay: Protac activity at CRBN/IRAK4 in human OCILY10 cells harboring MYD88 L265P mutant assessed as induction of IRAK4 degradation by measuring reduction in IRAK4 protein level at 1 uM incubated for 24 hrs by Western blot analysis; type: cell-based
TMD8 = assay: Antiproliferative activity against human TMD8 cells harboring MYD88 L265P mutant assessed as inhibition of cell growth incubated for 72 hrs by CCK-8 assay; type: functional, cell-based; conditions: TMD8, 72 h
OCI-Ly10 = assay: Antiproliferative activity against human OCILY10 cells harboring MYD88 L265P mutant assessed as inhibition of cell growth incubated for 72 hrs by CCK-8 assay; type: functional, cell-based; conditions: OCI-Ly10, 72 h
[3] = biological target: T1, Protein cereblon/Interleukin-1 receptor-associated kinase 4 (Homo sapiens); assay: Protac activity at CRBN/IRAK4 in human TMD8 cells assessed as inhibition of NF-kappaB p65 phosphorylation by Western blot analysis; type: cell-based; conditions: dose 0.1-10 µM
[4] = biological target: T1, Protein cereblon/Interleukin-1 receptor-associated kinase 4 (Homo sapiens); assay: Protac activity at CRBN/IRAK4 in human OCILY10 cells assessed as inhibition of NF-kappaB p65 phosphorylation by Western blot analysis; type: cell-based; conditions: dose 0.1-10 µM
[5] = biological target: T1, Protein cereblon/Interleukin-1 receptor-associated kinase 4 (Homo sapiens); assay: Protac activity at CRBN/IRAK4 in human TMD8 cells assessed as inhibition of IKKalpha/beta phosphorylation by Western blot analysis; type: cell-based; conditions: dose 0.1-10 µM
[6] = biological target: T1, Protein cereblon/Interleukin-1 receptor-associated kinase 4 (Homo sapiens); assay: Protac activity at CRBN/IRAK4 in human OCILY10 cells assessed as inhibition of IKKalpha/beta phosphorylation by Western blot analysis; type: cell-based; conditions: dose 0.1-10 µM
[7] = biological target: T1, Protein cereblon/Interleukin-1 receptor-associated kinase 4 (Homo sapiens); assay: Protac activity at CRBN/IRAK4 in human TMD8 cells assessed as inhibition of IRAK4 phosphorylation by Western blot analysis; type: cell-based; conditions: dose 0.1-10 µM
[8] = biological target: T1, Protein cereblon/Interleukin-1 receptor-associated kinase 4 (Homo sapiens); assay: Protac activity at CRBN/IRAK4 in human OCILY10 cells assessed as inhibition of IRAK4 phosphorylation by Western blot analysis; type: cell-based; conditions: dose 0.1-10 µM
[9] = biological target: T1, Protein cereblon/Interleukin-1 receptor-associated kinase 4 (Homo sapiens); assay: (§1) Protac activity at CRBN/IRAK4 in human TMD8 cells harboring MYD88 L265P mutant assessed as induction of IRAK4 degradation at 1 uM in presence of IRAK4 inhibitor, Methyl 4-(5-ethoxy-1-methyl-6-(6-(trifluoromethyl)picolinamido)-1H-benzo[d]imidazol-2-yl)-2,2-dimethylbutanoate by Western blot analysis; type: cell-based
[10] = biological target: T1, Protein cereblon/Interleukin-1 receptor-associated kinase 4 (Homo sapiens); assay: as §1, with “OCILY10” for “TMD8”; type: cell-based
[11] = biological target: T1, Protein cereblon/Interleukin-1 receptor-associated kinase 4 (Homo sapiens); assay: Protac activity at CRBN/IRAK4 in human TMD8 cells harboring MYD88 L265P mutant assessed as induction of IRAK4 degradation at 1 uM in presence of CRBN recruiter, pomalidomide by Western blot analysis; type: cell-based
[12] = biological target: T1, Protein cereblon/Interleukin-1 receptor-associated kinase 4 (Homo sapiens); assay: Protac activity at CRBN/IRAK4 in human OCILY10 cells harboring MYD88 L265P mutant assessed as induction of IRAK4 degradation at 1 uM in presence of CRBN recruiter, pomalidomide by Western blot analysis; type: cell-based
[13] = biological target: T1, Protein cereblon/Interleukin-1 receptor-associated kinase 4 (Homo sapiens); assay: Protac activity at CRBN/IRAK4 in human TMD8 cells harboring MYD88 L265P mutant assessed as induction of IRAK4 degradation at 1 uM pretreated with proteasome inhibitor, MG132 for 2 hrs followed by compound addition by Western blot analysis; type: cell-based
[14] = biological target: T1, Protein cereblon/Interleukin-1 receptor-associated kinase 4 (Homo sapiens); assay: Protac activity at CRBN/IRAK4 in human OCILY10 cells harboring MYD88 L265P mutant assessed as induction of IRAK4 degradation at 1 uM pretreated with proteasome inhibitor, MG132 for 2 hrs followed by compound addition by Western blot analysis; type: cell-based
[15] = biological target: T1, Protein cereblon/Interleukin-1 receptor-associated kinase 4 (Homo sapiens); assay: Protac activity at CRBN/IRAK4 in human TMD8 cells harboring MYD88 L265P mutant assessed as induction of IRAK4 degradation by measuring reduction in IRAK4 protein level at 1 uM by Western blot analysis; type: cell-based; conditions: time 1-24 hrs, TDE = time-dependent effect
[16] = biological target: T1, Protein cereblon/Interleukin-1 receptor-associated kinase 4 (Homo sapiens); assay: Protac activity at CRBN/IRAK4 in human OCILY10 cells harboring MYD88 L265P mutant assessed as induction of IRAK4 degradation by measuring reduction in IRAK4 protein level at 1 uM by Western blot analysis; type: cell-based; conditions: time 1-24 hrs, TDE = time-dependent effect
[17] = biological target: T1, Protein cereblon/Interleukin-1 receptor-associated kinase 4 (Homo sapiens); assay: Protac activity at CRBN/IRAK4 in human TMD8 cells harboring MYD88 L265P mutant assessed as induction of IRAK4 degradation by measuring reduction in IRAK4 protein level incubated for 24 hrs by Western blot analysis; type: cell-based; conditions: dose 0.1-10 µM
[18] = biological target: T1, Protein cereblon/Interleukin-1 receptor-associated kinase 4 (Homo sapiens); assay: Protac activity at CRBN/IRAK4 in human OCILY10 cells harboring MYD88 L265P mutant assessed as induction of IRAK4 degradation by measuring reduction in IRAK4 protein level incubated for 24 hrs by Western blot analysis; type: cell-based; conditions: dose 0.1-10 µM
[19] = biological target: T1, Protein cereblon/Interleukin-1 receptor-associated kinase 4 (Homo sapiens); assay: Protac activity at CRBN/IRAK4 in human OCILY10 cells assessed as inhibition of NFkappaB p65 phosphorylation at 2.5 to 20 uM incubated for 48 hrs by Western blot analysis; type: cell-based; conditions: dose 2.5-20 µM
OCI-LY19 = assay: Antiproliferative activity against human OCILY19 cells harboring wild type MYD88 assessed as inhibition of cell growth incubated for 72 hrs by CCK-8 assay; type: functional, cell-based
[20] = biological target: T2, Interleukin-1 receptor-associated kinase 4 (Homo sapiens, UniProt Q9NWZ3); assay: Inhibition of human full length N-terminal His6-tagged recombinant IRAK4 expressed in baculovirus-infected Sf21 cells by Z'-LYTE assay
T2 sequence (Q9NWZ3 whole entry): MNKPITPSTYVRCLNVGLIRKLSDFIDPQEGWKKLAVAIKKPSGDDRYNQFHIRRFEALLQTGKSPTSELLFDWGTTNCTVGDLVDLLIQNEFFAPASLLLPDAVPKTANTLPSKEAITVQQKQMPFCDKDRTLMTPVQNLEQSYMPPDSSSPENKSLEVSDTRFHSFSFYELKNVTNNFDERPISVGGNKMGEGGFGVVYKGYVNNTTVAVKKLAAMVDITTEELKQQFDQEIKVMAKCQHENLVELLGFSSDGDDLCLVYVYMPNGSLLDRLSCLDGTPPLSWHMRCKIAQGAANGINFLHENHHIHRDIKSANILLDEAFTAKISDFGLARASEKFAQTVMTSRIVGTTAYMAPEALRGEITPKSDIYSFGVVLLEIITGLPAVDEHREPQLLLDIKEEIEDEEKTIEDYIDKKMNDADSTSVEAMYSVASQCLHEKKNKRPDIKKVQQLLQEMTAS

T1 sequence (Q96SW2 whole entry, looked up, one chain of several): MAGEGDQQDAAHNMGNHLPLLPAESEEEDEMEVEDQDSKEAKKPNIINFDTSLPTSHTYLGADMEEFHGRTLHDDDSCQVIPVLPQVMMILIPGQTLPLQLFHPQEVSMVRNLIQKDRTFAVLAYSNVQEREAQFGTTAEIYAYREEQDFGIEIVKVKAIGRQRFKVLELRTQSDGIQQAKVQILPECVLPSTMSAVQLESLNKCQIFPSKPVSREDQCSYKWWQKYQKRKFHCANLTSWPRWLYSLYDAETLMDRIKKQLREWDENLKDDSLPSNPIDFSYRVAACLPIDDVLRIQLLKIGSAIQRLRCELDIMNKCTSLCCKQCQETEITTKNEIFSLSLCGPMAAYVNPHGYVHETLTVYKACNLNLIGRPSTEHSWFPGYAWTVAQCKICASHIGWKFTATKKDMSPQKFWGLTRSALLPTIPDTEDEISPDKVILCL

| SMILES | Activity [1] | Activity [2] | IC50 (TMD8) [µM] | IC50 (OCI-Ly10) [µM] | other results |
| --- | --- | --- | --- | --- | --- |
| CCOc1cc2nc(CCC(C)(C)C(=O)NCCCCCCNc3cccc4c3C(=O)N(C3CCC(=O)NC3=O)C4=O)n(C)c2cc1NC(=O)c1cccc(C(F)(F)F)n1 (centres undefined) | inactive | inactive |  |  |  |
| CCOc1cc2nc(CCC(C)(C)C(=O)NCCOCCOCCNc3cccc4c3C(=O)N(C3CCC(=O)NC3=O)C4=O)n(C)c2cc1NC(=O)c1cccc(C(F)(F)F)n1 (centres undefined) | Active | Active | 7.6 | 4.6 | Activity [3]: Dose-dependent effect; Activity [4]: Dose-dependent effect; Activity [5]: Dose-dependent effect; Activity [6]: Dose-dependent effect; Activity [7]: Dose-dependent effect; Activity [8]: Dose-dependent effect; Activity [9]: inactive; Activity [10]: inactive; Activity [11]: inactive; Activity [12]: inactive; Activity [13]: inactive; Activity [14]: inactive; Activity [15]: Tde; Activity [16]: Tde; Activity [17]: Dose-dependent effect; Activity [18]: Dose-dependent effect; Activity [19]: Active; Activity (OCI-LY19): inactive |
| CCOc1cc2nc(CCC(C)(C)C(=O)NCCCCNc3cccc4c3C(=O)N(C3CCC(=O)NC3=O)C4=O)n(C)c2cc1NC(=O)c1cccc(C(F)(F)F)n1 (centres undefined) | inactive | inactive |  |  |  |
| CCOc1cc2nc(CCC(C)(C)C(=O)NCCOCCOCCNc3cccc4c3C(=O)N(C3CCC(=O)N(C)C3=O)C4=O)n(C)c2cc1NC(=O)c1cccc(C(F)(F)F)n1 (centres undefined) | inactive | inactive | > 50 | 11 | Activity [19]: inactive |
| CCOc1cc2nc(CCC(C)(C)C(=O)NCCOCCNc3cccc4c3C(=O)N(C3CCC(=O)NC3=O)C4=O)n(C)c2cc1NC(=O)c1cccc(C(F)(F)F)n1 (centres undefined) | inactive | inactive |  |  |  |
| CCOc1cc2nc(CCC(C)(C)C(=O)NCCCCCNc3cccc4c3C(=O)N(C3CCC(=O)NC3=O)C4=O)n(C)c2cc1NC(=O)c1cccc(C(F)(F)F)n1 (centres undefined) | inactive | inactive |  |  |  |
| CCOc1cc2nc(CCC(C)(C)C(=O)NCCCNc3cccc4c3C(=O)N(C3CCC(=O)NC3=O)C4=O)n(C)c2cc1NC(=O)c1cccc(C(F)(F)F)n1 (centres undefined) | inactive | inactive |  |  |  |
| CCOc1cc2nc(CCC(C)(C)C(=O)NCCCCCCCNc3cccc4c3C(=O)N(C3CCC(=O)NC3=O)C4=O)n(C)c2cc1NC(=O)c1cccc(C(F)(F)F)n1 (centres undefined) | Active | inactive |  |  |  |
| CCOc1cc2nc(CCC(C)(C)C(=O)OC)n(C)c2cc1NC(=O)c1cccc(C(F)(F)F)n1 |  |  | > 50 | > 50 | IC50 [20]: 0.0707 µM |
| CCOc1cc2nc(CCC(C)(C)C(=O)NCCNc3cccc4c3C(=O)N(C3CCC(=O)NC3=O)C4=O)n(C)c2cc1NC(=O)c1cccc(C(F)(F)F)n1 (centres undefined) | inactive | inactive |  |  |  |
